According to patent US4228298A, “15-Deoxy-16-hydroxy-16-fluoromethyl, difluoromethyl or trifluoromethyl prostaglandins of the E and F series” (American Cyanamid Company, priority 1979, dated 1980):

Experiments:
Type in all cases: in vivo
[1] = test system: bronchospasms elicited by histamine; test: Konzett procedure, bronchodilator activity against bronchospasms elicited by intravenous histamine; conditions: Cavia porcellus; spasmogen histamine; three logarithmic cumulative intravenous doses; guinea-pigs; read-out: ED 50 (spasmogen Histamine)
Protocol: (§1) The bronchodilator activity for representative compounds of this invention was determined in Guinea-Pigs against bronchospasms elicited by intravenous injections of serotonin, histamine, and acetylcholine, by the Konzett procedure the details of which are those discussed by J. Lulling, P. Lievens, F. El Sayed and J. Prignot, Arzeimittel-Forschung 18, 995 (1968).
(§2) In the table which follows, bronchodilator activity for representative compounds of the invention against spasmogenic agents serotonin, histamine, and acetylcholine is expressed as an ED50 determined from the results obtained with three logarithmic cumulative intravenous doses.

[2] = test system: bronchospasms elicited by serotonin; test: Konzett procedure, bronchodilator activity against bronchospasms elicited by intravenous serotonin; conditions: Cavia porcellus; spasmogen serotonin; three logarithmic cumulative intravenous doses; guinea-pigs; read-out: ED 50 (spasmogen Serotonin)
Protocol: as §1, §2

[3] = test system: bronchospasms elicited by acetylcholine; test: Konzett procedure, bronchodilator activity against bronchospasms elicited by intravenous acetylcholine; conditions: Cavia porcellus; spasmogen acetylcholine; three logarithmic cumulative intravenous doses; guinea-pigs; read-out: ED 50 (spasmogen Acetylcholine)
Protocol: as §1, §2

Row | Compound | ED50 [1] [µg/kg] | ED50 [2] [µg/kg] | ED50 [3] [µg/kg]
1 | CCCCC(O)(C/C=C/[C@H]1[C@H](O)CC(=O)[C@@H]1C/C=C\CCCC(=O)O)C(F)F (relative stereo) [dl-11α,16-dihydroxy-9-oxo-16-difluoromethyl-5-cis-13-trans prostadienoic acid] | 2.78 | 4.6 | 4.04
2 | CCCCC(O)(C/C=C/[C@H]1[C@H](O)CC(=O)[C@@H]1C/C=C\CCCC(=O)O)C(F)(F)F (relative stereo) [dl-11α,16-dihydroxy-9-oxo-16-trifluoromethyl-5-cis-13-trans prostadienoic acid] | 4.15 | 7.96 | 10
3 | CCCCC(O)(CF)C/C=C/[C@H]1[C@H](O)CC(=O)[C@@H]1C/C=C\CCCC(=O)O (relative stereo) [dl-11α,16-dihydroxy-9-oxo-16-fluoromethyl-5-cis-13-trans prostadienoic acid] | 2.57 | 1.38 | 1.94
